{"source": "patent US20060121449A1", "about": "“Method for selection of compounds which inhibit clonal cell growth and use thereof” (priority 2002, published 2006)", "tested_on": "polyoma virus transformed BHK21/c13 cells, line S100T1", "test": "Collocation inhibition test: clonal growth in sparsely and densely seeded areas of a cell density gradient of S100T1 cells in soft agar (Exp 13, 17, 19-26);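 on Clonal growth, H high density area of cell gradient, High: grades rise with clonal growth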;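 on Clonal growth, H high density area of cell gradient, Low: grades rise with clonal growth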;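 on Clonal growth, H high density area of cell gradient, Medium: grades rise with clonal growth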;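 on Clonal growth, L low density area of cell gradient, High: grades rise with clonal growth and minus or plus-minus means none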;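 on Clonal growth, L low density area of cell gradient, Low: grades rise with clonal growth and minus or plus-minus means none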;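 on Clonal growth, L low density area of cell gradient, Medium: grades rise with clonal growth and minus or plus-minus means none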;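 on all read-outs here: soft agar cultures in 24-well plates with a cell density gradient in the top layer, compounds applied from DMSO stocks, clonal growth scored in sparse versus dense areas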", "settings": "for Effect on clonal growth, high dose: 172800 S100T1 cells/well; for Resulting clonal growth of treated cultures: Experiment 26, read after 24 hours; for Clonal growth, H high density area of cell gradient, High / Clonal growth, L low density area of cell gradient, High / Clonal growth, H high density area of cell gradient, Low / Clonal growth, L low density area of cell gradient, Low / Clonal growth, H high density area of cell gradient, Medium / Clonal growth, L low density area of cell gradient, Medium / Effect on cell cloning in soft agar: preliminary results; for Clonal growth, H high density area of cell gradient, High / Clonal growth, L low density area of cell gradient, High / Clonal growth, H high density area of cell gradient, Low / Clonal growth, L low density area of cell gradient, Low / Clonal growth, H high density area of cell gradient, Medium / Clonal growth, L low density area of cell gradient, Medium: Exp 13-18, 21-26; for Effect on cell cloning in soft agar: in words; for Effect on clonal growth and toxicity: 117000 S100T1 cells/well; for Clonal growth after 48 hours incubation: Exp 19", "key": {"[1]": {"settings": "H: area with high cell density, High concentration"}, "[2]": {"settings": "H: area with high cell density, Low concentration"}, "[3]": {"settings": "H: area with high cell density, Medium concentration"}, "[4]": {"settings": "L: area with low cell density, High concentration"}, "[5]": {"settings": "L: area with low cell density, Low concentration"}, "[6]": {"settings": "L: area with low cell density, Medium concentration"}}, "note": "Entries after “also recorded” stand apart in the source; their conditions may differ.", "protocol": "The cells should be grown in a top agar layer to avoid growth on the bottom surface. […] Both densely seeded and sparsely seeded areas were photographed.\nCells: The polyoma virus transformed offspring of BHK21/c13, S100T1, was grown on 75 cm^2 flasks on Eagles medium with 5% foetal calf serum. […] Foetal calf serum (0.7 ml) was added to each harvest. After low speed centrifugation the supernatant was discarded and the cells were dispersed in 1 ml FBS.\nThe concentration of ultra low gelling temperature agarose (Sigma) of the top agar layer with cells was also 0.8%. […] The addition of cells was performed at the same side of the wells in order to create similar cell density gradients. Finally the top layer agar was consolidated in the refrigerator.\nAfter that it was incubated at 37 degrees in 5% CO2 atmosphere.\nAgar cultures were prepared in Falcon 24 well tissue culture plate. Each well contained two agar layers of 0.3 ml.\nAgar cultures were prepared in wells of Falcon 24 well tissue culture plate. Each contained two agar layers of 0.3 ml. […] The medium contained Eagles MEM and 10% foetal bovine serum (FBS).\nThe compounds were first solved in DMSO in 20 mM concentration and then diluted in medium. The top layer needed 60-90 minutes in the refrigerator for solidification before incubation in 37° C. with 5% CO2 atmosphere.\nIn this experiment the inhibitor was added to the bottom layer in order to get an easier way for making the cell density gradient. One side of the Falcon 24 well plate was elevated 12 degrees in the refrigerator for 60-90 minutes to solidify the bottom layer in an oblique position When then solidifying the cell containing top soft agar layer in horizontal position, the cell gradient constantly became good across the well. […] Another 90 minutes were spent in the refrigerator to consolidate the soft agar layer with cells in a horizontal position. Both layers contained 0.8% agarose, Eagles MEM and 10% FBS.\nTilting the plate 12 degrees when solidifying the bottom layer with the drug and casting the top layer with cells horizontally made a stable cell gradient.\nThe indicated compounds were added to soft agar cultures of the polyoma virus transformed cell line S100T1 of BHK21/c13 cells (Table 1). Agar cultures were prepared in wells of a Falcon 24 well tissue culture plate. The wells contained two agar layers of 0.3 ml. […] The bottom medium was identical, but without cells.\nThe compounds were first solved in DMSO in 20 mM concentration and then diluted in bottom medium. The agar layers needed 60-90 minutes in the refrigerator for consolidation before incubation at 37° C. in 5% CO2 atmosphere.", "data": [{"compound": "c1ccc2c(c1)cc1ccc3cccc4ccc2c1c34", "note": "[Benzo(a)pyrene, reference compound]", "values": [{"measurement": "Effect on clonal growth, high dose", "setting": "Exp 26", "result": "increased clonability"}, {"measurement": "Resulting clonal growth of treated cultures", "setting": "[1]", "result": "++"}, {"measurement": "Resulting clonal growth of treated cultures", "setting": "[2]", "result": "++"}, {"measurement": "Resulting clonal growth of treated cultures", "setting": "[3]", "result": "++"}, {"measurement": "Resulting clonal growth of treated cultures", "setting": "[4]", "result": "+++"}, {"measurement": "Resulting clonal growth of treated cultures", "setting": "[5]", "result": "++"}, {"measurement": "Resulting clonal growth of treated cultures", "setting": "[6]", "result": "++"}, {"measurement": "Clonal growth, H high density area of cell gradient, High", "setting": "high concentration", "result": "++"}, {"measurement": "Clonal growth, L low density area of cell gradient, High", "setting": "high concentration", "result": "+++"}, {"measurement": "Clonal growth, H high density area of cell gradient, Low", "setting": "low concentration", "result": "++"}, {"measurement": "Clonal growth, L low density area of cell gradient, Low", "setting": "low concentration", "result": "++"}, {"measurement": "Clonal growth, H high density area of cell gradient, Medium", "setting": "medium concentration", "result": "++"}, {"measurement": "Clonal growth, L low density area of cell gradient, Medium", "setting": "medium concentration", "result": "++"}, {"measurement": "Effect on cell cloning in soft agar", "result": "Increased clonal growth at low density"}]}, {"compound": "Nc1ccn([C@@H]2O[C@H](CO)[C@@H](O)[C@@H]2O)c(=O)n1", "note": "[Cytarabin, reference compound]", "values": [{"measurement": "Effect on clonal growth and toxicity", "setting": "Exp 21", "result": "significant toxic effect at dosage that showed significant inhibition of clonal growth; also recorded: incomplete inhibition and signs of toxicity"}, {"measurement": "Effect on clonal growth and toxicity", "setting": "Exp 21, listed as Cytarabine", "result": "incomplete inhibition of clonal growth and significant toxicity"}, {"measurement": "Clonal growth", "setting": "Exp 21, 117000 cells per well, Low concentration (see figure), H: area with high cell density", "result": "++"}, {"measurement": "Clonal growth", "setting": "Exp 21, High concentration, H: area with high cell density", "result": "(+)"}, {"measurement": "Clonal growth", "setting": "Exp 21, High concentration, L: area with low cell density", "result": "(+)"}, {"measurement": "Clonal growth", "setting": "Exp 21, Low concentration, L: area with low cell density", "result": "+"}, {"measurement": "Clonal growth", "setting": "Exp 21, Medium concentration, H: area with high cell density", "result": "++"}, {"measurement": "Clonal growth", "setting": "Exp 21, Medium concentration, L: area with low cell density", "result": "+"}, {"measurement": "Clonal growth, H high density area of cell gradient, High", "setting": "high concentration", "result": "(+)"}, {"measurement": "Clonal growth, L low density area of cell gradient, High", "setting": "high concentration", "result": "(+)"}, {"measurement": "Clonal growth, H high density area of cell gradient, Low", "setting": "low concentration", "result": "++"}, {"measurement": "Clonal growth, L low density area of cell gradient, Low", "setting": "low concentration", "result": "+"}, {"measurement": "Clonal growth, H high density area of cell gradient, Medium", "setting": "medium concentration", "result": "++"}, {"measurement": "Clonal growth, L low density area of cell gradient, Medium", "setting": "medium concentration", "result": "+"}, {"measurement": "Effect on cell cloning in soft agar", "result": "Incomplete inhibition of clonal growth"}]}, {"compound": "Cn1cnc([N+](=O)[O-])c1Sc1ncnc2nc[nH]c12", "note": "[Azathioprin, reference compound]", "values": [{"measurement": "Effect on clonal growth", "setting": "Exp 25, 48 hours incubation", "result": "no clonal inhibition or stimulation"}, {"measurement": "Clonal growth", "setting": "Experiment 25, H: area with high cell density, High concentration, after 48 hours incubation", "result": "++"}, {"measurement": "Clonal growth", "setting": "Experiment 25, H: area with high cell density, Low concentration, after 48 hours incubation", "result": "++"}, {"measurement": "Clonal growth", "setting": "Experiment 25, H: area with high cell density, Medium concentration, after 48 hours incubation", "result": "++"}, {"measurement": "Clonal growth", "setting": "Experiment 25, L: area with low cell density, High concentration, after 48 hours incubation", "result": "++"}, {"measurement": "Clonal growth", "setting": "Experiment 25, L: area with low cell density, Low concentration, after 48 hours incubation", "result": "++"}, {"measurement": "Clonal growth", "setting": "Experiment 25, L: area with low cell density, Medium concentration, after 48 hours incubation", "result": "++"}, {"measurement": "Clonal growth, H high density area of cell gradient, High", "setting": "high concentration", "result": "++"}, {"measurement": "Clonal growth, L low density area of cell gradient, High", "setting": "high concentration", "result": "++"}, {"measurement": "Clonal growth, H high density area of cell gradient, Low", "setting": "low concentration", "result": "++"}, {"measurement": "Clonal growth, L low density area of cell gradient, Low", "setting": "low concentration", "result": "++"}, {"measurement": "Clonal growth, H high density area of cell gradient, Medium", "setting": "medium concentration", "result": "++"}, {"measurement": "Clonal growth, L low density area of cell gradient, Medium", "setting": "medium concentration", "result": "++"}, {"measurement": "Effect on cell cloning in soft agar", "result": "No effect"}]}, {"compound": "CC1=C(CC(=O)O)c2cc(F)ccc2/C1=C\\c1ccc([S+](C)[O-])cc1", "note": "(stereo not shown) [Sulindac, reference compound]", "values": [{"measurement": "Effect on clonal growth of sparsely seeded cells, low dose", "setting": "Exp 26", "result": "clone-inducing effect"}, {"measurement": "Effect on clonal growth, high dose", "setting": "Exp 26", "result": "weak anti-cloning effect on sparsely seeded cells; also recorded: abrogated this effect. It is considered logic"}, {"measurement": "Resulting clonal growth of treated cultures", "setting": "[1]", "result": "++"}, {"measurement": "Resulting clonal growth of treated cultures", "setting": "[2]", "result": "++(+)"}, {"measurement": "Resulting clonal growth of treated cultures", "setting": "[3]", "result": "++"}, {"measurement": "Resulting clonal growth of treated cultures", "setting": "[4]", "result": "+"}, {"measurement": "Resulting clonal growth of treated cultures", "setting": "[5]", "result": "+++"}, {"measurement": "Resulting clonal growth of treated cultures", "setting": "[6]", "result": "++"}, {"measurement": "Clonal growth, H high density area of cell gradient, High", "setting": "high concentration", "result": "++"}, {"measurement": "Clonal growth, L low density area of cell gradient, High", "setting": "high concentration", "result": "+"}, {"measurement": "Clonal growth, H high density area of cell gradient, Low", "setting": "low concentration", "result": "++(+)"}, {"measurement": "Clonal growth, L low density area of cell gradient, Low", "setting": "low concentration", "result": "+++"}, {"measurement": "Clonal growth, H high density area of cell gradient, Medium", "setting": "medium concentration", "result": "++"}, {"measurement": "Clonal growth, L low density area of cell gradient, Medium", "setting": "medium concentration", "result": "++"}, {"measurement": "Effect on cell cloning in soft agar", "result": "Possible clonal stimulation at low"}]}, {"compound": "COc1c(C)c2c(c(O)c1C/C=C(\\C)CCC(=O)O)C(=O)OC2", "note": "[Mycophenolic ac]", "values": [{"measurement": "Clonal growth after 48 hours incubation", "setting": "high concentration, H: high cell density part of the gradient", "result": "(+)"}, {"measurement": "Clonal growth after 48 hours incubation", "setting": "high concentration, L: low cell density part of the gradient", "result": "(+)"}, {"measurement": "Clonal growth after 48 hours incubation", "setting": "low concentration (exact conc. only in figure), H: high cell density part of the gradient", "result": "(+)"}, {"measurement": "Clonal growth after 48 hours incubation", "setting": "low concentration, L: low cell density part of the gradient", "result": "(+)"}, {"measurement": "Clonal growth after 48 hours incubation", "setting": "medium concentration, H: high cell density part of the gradient", "result": "(+)"}, {"measurement": "Clonal growth after 48 hours incubation", "setting": "medium concentration, L: low cell density part of the gradient", "result": "(+)"}]}]}
